# PubChem BioAssay (NCI)
#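 Compound exposure: 48 hours, 5 concentrations, 96-well plates. Definition used: TGI = concentration required for complete inhibition of growth.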
# Tests used:
# Assay in all cases: growth of human tumour cells (NCI), 48 h
# 786-0 renal = system: 786-0 renal
# A549 NSCLC = system: A549 NSCLC
# ACHN renal = system: ACHN renal
# CAKI-1 renal = system: CAKI-1 renal
# CCRF-CEM leukemia = system: CCRF-CEM leukemia
# COLO 205 colon = system: COLO 205 colon
# DLD-1 colon = system: DLD-1 colon
# DMS 114 small cell lung = system: DMS 114 small cell lung
# DMS 273 small cell lung = system: DMS 273 small cell lung
# HCT-116 colon = system: HCT-116 colon
# HCT-15 colon = system: HCT-15 colon
# HL-60(TB) leukemia = system: HL-60(TB) leukemia
# HOP-18 NSCLC = system: HOP-18 NSCLC
# HOP-62 NSCLC = system: HOP-62 NSCLC
# HOP-92 NSCLC = system: HOP-92 NSCLC
# HT29 colon = system: HT29 colon
# IGROV1 ovarian = system: IGROV1 ovarian
# K-562 leukemia = system: K-562 leukemia
# KM12 colon = system: KM12 colon
# KM20L2 colon = system: KM20L2 colon
# LOX IMVI melanoma = system: LOX IMVI melanoma
# LXFL 529 NSCLC = system: LXFL 529 NSCLC
# M14 melanoma = system: M14 melanoma
# M19-MEL melanoma = system: M19-MEL melanoma
# MALME-3M melanoma = system: MALME-3M melanoma
# MOLT-4 leukemia = system: MOLT-4 leukemia
# NCI-H226 lung = system: NCI-H226 lung
# NCI-H23 lung = system: NCI-H23 lung
# NCI-H460 lung = system: NCI-H460 lung
# NCI-H522 lung = system: NCI-H522 lung
# OVCAR-3 ovarian = system: OVCAR-3 ovarian
# OVCAR-4 ovarian = system: OVCAR-4 ovarian
# OVCAR-5 ovarian = system: OVCAR-5 ovarian
# OVCAR-8 ovarian = system: OVCAR-8 ovarian
# RPMI-8226 leukemia = system: RPMI-8226 leukemia
# RXF 393 renal = system: RXF 393 renal
# SF-268 CNS = system: SF-268 CNS
# SF-295 CNS = system: SF-295 CNS
# SF-539 CNS = system: SF-539 CNS
# SK-MEL-2 melanoma = system: SK-MEL-2 melanoma
# SK-MEL-28 melanoma = system: SK-MEL-28 melanoma
# SK-MEL-5 melanoma = system: SK-MEL-5 melanoma
# SK-OV-3 ovarian = system: SK-OV-3 ovarian
# SN12C renal = system: SN12C renal
# SNB-19 CNS = system: SNB-19 CNS
# SNB-75 CNS = system: SNB-75 CNS
# SNB-78 CNS = system: SNB-78 CNS
# SW-620 colon = system: SW-620 colon
# TK-10 renal = system: TK-10 renal
# U251 CNS = system: U251 CNS
# UACC-257 melanoma = system: UACC-257 melanoma
# UACC-62 melanoma = system: UACC-62 melanoma
# UO-31 renal = system: UO-31 renal
# XF 498 CNS = system: XF 498 CNS
# A498 renal = system: A498 renal
# EKVX NSCLC = system: EKVX NSCLC
# SR leukemia = system: SR leukemia
# HCC-2998 colon = system: HCC-2998 colon
smiles,measurement,setting,value
COc1c2nc(CCl)[nH]c(=O)c2c(OC)c2nc(CCl)[nH]c(=O)c12,TGI,786-0 renal,> 100 µM
same,TGI,A549 NSCLC,> 100 µM
same,TGI,ACHN renal,> 100 µM
same,TGI,CAKI-1 renal,> 100 µM
same,TGI,CCRF-CEM leukemia,> 100 µM
same,TGI,COLO 205 colon,> 100 µM
same,TGI,DLD-1 colon,> 100 µM
same,TGI,DMS 114 small cell lung,> 100 µM
same,TGI,DMS 273 small cell lung,> 100 µM
same,TGI,HCT-116 colon,> 100 µM
same,TGI,HCT-15 colon,> 100 µM
same,TGI,HL-60(TB) leukemia,> 100 µM
same,TGI,HOP-18 NSCLC,> 100 µM
same,TGI,HOP-62 NSCLC,> 100 µM
same,TGI,HOP-92 NSCLC,> 100 µM
same,TGI,HT29 colon,> 100 µM
same,TGI,IGROV1 ovarian,> 100 µM
same,TGI,K-562 leukemia,> 100 µM
same,TGI,KM12 colon,> 100 µM
same,TGI,KM20L2 colon,> 100 µM
same,TGI,LOX IMVI melanoma,> 100 µM
same,TGI,LXFL 529 NSCLC,> 100 µM
same,TGI,M14 melanoma,> 100 µM
same,TGI,M19-MEL melanoma,> 100 µM
same,TGI,MALME-3M melanoma,> 100 µM
same,TGI,MOLT-4 leukemia,> 100 µM
same,TGI,NCI-H226 lung,> 100 µM
same,TGI,NCI-H23 lung,> 100 µM
same,TGI,NCI-H460 lung,> 100 µM
same,TGI,NCI-H522 lung,> 100 µM
same,TGI,OVCAR-3 ovarian,> 100 µM
same,TGI,OVCAR-4 ovarian,> 100 µM
same,TGI,OVCAR-5 ovarian,> 100 µM
same,TGI,OVCAR-8 ovarian,> 100 µM
same,TGI,RPMI-8226 leukemia,> 100 µM
same,TGI,RXF 393 renal,> 100 µM
same,TGI,SF-268 CNS,> 100 µM
same,TGI,SF-295 CNS,> 100 µM
same,TGI,SF-539 CNS,> 100 µM
same,TGI,SK-MEL-2 melanoma,> 100 µM
same,TGI,SK-MEL-28 melanoma,> 100 µM
same,TGI,SK-MEL-5 melanoma,> 100 µM
same,TGI,SK-OV-3 ovarian,> 100 µM
same,TGI,SN12C renal,> 100 µM
same,TGI,SNB-19 CNS,> 100 µM
same,TGI,SNB-75 CNS,> 100 µM
same,TGI,SNB-78 CNS,> 100 µM
same,TGI,SW-620 colon,> 100 µM
same,TGI,TK-10 renal,> 100 µM
same,TGI,U251 CNS,> 100 µM
same,TGI,UACC-257 melanoma,> 100 µM
same,TGI,UACC-62 melanoma,> 100 µM
same,TGI,UO-31 renal,> 100 µM
same,TGI,XF 498 CNS,> 100 µM
CC(=O)OCC1OC(N2C(=O)C(=O)c3cc(C)ccc32)C(OC(C)=O)C(OC(C)=O)C1OC(C)=O (centres undefined),TGI,786-0 renal,> 100 µM
same,TGI,A498 renal,> 100 µM
same,TGI,A549 NSCLC,> 100 µM
same,TGI,ACHN renal,> 100 µM
same,TGI,CAKI-1 renal,> 100 µM
same,TGI,CCRF-CEM leukemia,> 100 µM
same,TGI,COLO 205 colon,> 100 µM
same,TGI,DLD-1 colon,> 100 µM
same,TGI,DMS 114 small cell lung,> 100 µM
same,TGI,DMS 273 small cell lung,> 100 µM
same,TGI,EKVX NSCLC,> 100 µM
same,TGI,HCT-116 colon,> 100 µM
same,TGI,HCT-15 colon,> 100 µM
same,TGI,HL-60(TB) leukemia,59.5 µM
same,TGI,HOP-18 NSCLC,> 100 µM
same,TGI,HOP-62 NSCLC,> 100 µM
same,TGI,HOP-92 NSCLC,> 100 µM
same,TGI,HT29 colon,> 100 µM
same,TGI,IGROV1 ovarian,> 100 µM
same,TGI,K-562 leukemia,> 100 µM
same,TGI,KM12 colon,> 100 µM
same,TGI,KM20L2 colon,> 100 µM
same,TGI,LOX IMVI melanoma,34.3 µM
same,TGI,LXFL 529 NSCLC,> 100 µM
same,TGI,M14 melanoma,> 100 µM
same,TGI,M19-MEL melanoma,> 100 µM
same,TGI,MALME-3M melanoma,> 100 µM
same,TGI,MOLT-4 leukemia,> 100 µM
same,TGI,NCI-H226 lung,> 100 µM
same,TGI,NCI-H23 lung,> 100 µM
same,TGI,NCI-H460 lung,> 100 µM
same,TGI,NCI-H522 lung,> 100 µM
same,TGI,OVCAR-3 ovarian,> 100 µM
same,TGI,OVCAR-4 ovarian,> 100 µM
same,TGI,OVCAR-5 ovarian,> 100 µM
same,TGI,OVCAR-8 ovarian,> 100 µM
same,TGI,RPMI-8226 leukemia,70.1 µM
same,TGI,RXF 393 renal,90.7 µM
same,TGI,SF-268 CNS,> 100 µM
same,TGI,SF-295 CNS,> 100 µM
same,TGI,SF-539 CNS,> 100 µM
same,TGI,SK-MEL-2 melanoma,> 100 µM
same,TGI,SK-MEL-28 melanoma,91.8 µM
same,TGI,SK-MEL-5 melanoma,> 100 µM
same,TGI,SK-OV-3 ovarian,> 100 µM
same,TGI,SN12C renal,> 100 µM
same,TGI,SNB-19 CNS,> 100 µM
same,TGI,SNB-75 CNS,> 100 µM
same,TGI,SNB-78 CNS,> 100 µM
same,TGI,SR leukemia,41.4 µM
same,TGI,SW-620 colon,> 100 µM
same,TGI,TK-10 renal,> 100 µM
same,TGI,U251 CNS,> 100 µM
same,TGI,UACC-257 melanoma,> 100 µM
same,TGI,UACC-62 melanoma,> 100 µM
same,TGI,UO-31 renal,> 100 µM
O/N=C(\c1ccccc1)N1CCCCC1,TGI,786-0 renal,> 100 µM
same,TGI,A549 NSCLC,> 100 µM
same,TGI,CAKI-1 renal,> 100 µM
same,TGI,COLO 205 colon,> 100 µM
same,TGI,DLD-1 colon,> 100 µM
same,TGI,DMS 114 small cell lung,> 100 µM
same,TGI,DMS 273 small cell lung,> 100 µM
same,TGI,HCC-2998 colon,> 100 µM
same,TGI,HCT-116 colon,> 100 µM
same,TGI,HL-60(TB) leukemia,> 100 µM
same,TGI,HOP-62 NSCLC,> 100 µM
same,TGI,HOP-92 NSCLC,> 100 µM
same,TGI,HT29 colon,> 100 µM
same,TGI,KM12 colon,> 100 µM
same,TGI,KM20L2 colon,> 100 µM
same,TGI,LOX IMVI melanoma,> 100 µM
same,TGI,LXFL 529 NSCLC,> 100 µM
same,TGI,M14 melanoma,> 100 µM
same,TGI,NCI-H23 lung,> 100 µM
same,TGI,NCI-H460 lung,> 100 µM
same,TGI,NCI-H522 lung,> 100 µM
same,TGI,OVCAR-3 ovarian,> 100 µM
same,TGI,OVCAR-4 ovarian,> 100 µM
same,TGI,OVCAR-5 ovarian,> 100 µM
same,TGI,OVCAR-8 ovarian,> 100 µM
same,TGI,SF-268 CNS,> 100 µM
same,TGI,SF-295 CNS,> 100 µM
same,TGI,SF-539 CNS,> 100 µM
same,TGI,SK-MEL-2 melanoma,> 100 µM
same,TGI,SN12C renal,> 100 µM
same,TGI,SNB-19 CNS,> 100 µM
same,TGI,SNB-75 CNS,> 100 µM
same,TGI,SNB-78 CNS,> 100 µM
same,TGI,SR leukemia,> 100 µM
same,TGI,SW-620 colon,> 100 µM
same,TGI,U251 CNS,> 100 µM
same,TGI,UACC-257 melanoma,> 100 µM
same,TGI,UO-31 renal,> 100 µM
CC1C[C@@]2(c3ccccc3)C(=O)CCC[C@H]2N1 (some centres undefined),TGI,786-0 renal,> 100 µM
same,TGI,A498 renal,> 100 µM
same,TGI,A549 NSCLC,> 100 µM
same,TGI,ACHN renal,> 100 µM
same,TGI,CAKI-1 renal,> 100 µM
same,TGI,CCRF-CEM leukemia,> 100 µM
same,TGI,DLD-1 colon,> 100 µM
same,TGI,DMS 114 small cell lung,> 100 µM
same,TGI,DMS 273 small cell lung,> 100 µM
same,TGI,EKVX NSCLC,> 100 µM
same,TGI,HCT-116 colon,> 100 µM
same,TGI,HL-60(TB) leukemia,> 100 µM
same,TGI,HOP-62 NSCLC,> 100 µM
same,TGI,HOP-92 NSCLC,> 100 µM
same,TGI,HT29 colon,> 100 µM
same,TGI,IGROV1 ovarian,> 100 µM
same,TGI,K-562 leukemia,> 100 µM
same,TGI,KM12 colon,> 100 µM
same,TGI,KM20L2 colon,> 100 µM
same,TGI,LXFL 529 NSCLC,> 100 µM
same,TGI,M14 melanoma,> 100 µM
same,TGI,M19-MEL melanoma,> 100 µM
same,TGI,MALME-3M melanoma,> 100 µM
same,TGI,MOLT-4 leukemia,> 100 µM
same,TGI,NCI-H226 lung,> 100 µM
same,TGI,NCI-H23 lung,> 100 µM
same,TGI,NCI-H460 lung,> 100 µM
same,TGI,NCI-H522 lung,> 100 µM
same,TGI,OVCAR-3 ovarian,> 100 µM
same,TGI,OVCAR-4 ovarian,> 100 µM
same,TGI,OVCAR-5 ovarian,> 100 µM
same,TGI,OVCAR-8 ovarian,> 100 µM
same,TGI,RXF 393 renal,> 100 µM
same,TGI,SF-268 CNS,> 100 µM
same,TGI,SF-295 CNS,> 100 µM
same,TGI,SF-539 CNS,> 100 µM
same,TGI,SK-MEL-2 melanoma,> 100 µM
same,TGI,SK-MEL-28 melanoma,> 100 µM
same,TGI,SK-MEL-5 melanoma,> 100 µM
same,TGI,SK-OV-3 ovarian,> 100 µM
same,TGI,SN12C renal,> 100 µM
same,TGI,SNB-19 CNS,> 100 µM
same,TGI,SNB-75 CNS,> 100 µM
same,TGI,SNB-78 CNS,> 100 µM
same,TGI,SR leukemia,> 100 µM
same,TGI,SW-620 colon,> 100 µM
same,TGI,TK-10 renal,> 100 µM
same,TGI,U251 CNS,> 100 µM
same,TGI,UACC-257 melanoma,> 100 µM
same,TGI,UACC-62 melanoma,> 100 µM
same,TGI,UO-31 renal,> 100 µM
